Source: PubChem BioAssay (NCI)
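Assay format: 96-well plates, 48-hour exposure. GI50: concentration for 50% inhibition of growth. At the TGI there is no net growth.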

Key:
Assay in all cases: NCI anticancer screen, dose series, 48 h
NCI-H522 lung = test system: NCI-H522 lung
SF-295 CNS = test system: SF-295 CNS
U251 CNS = test system: U251 CNS
SK-MEL-5 melanoma = test system: SK-MEL-5 melanoma
BT-549 breast = test system: BT-549 breast
NCI-H23 lung = test system: NCI-H23 lung
HCC-2998 colon = test system: HCC-2998 colon
PC-3 prostate = test system: PC-3 prostate
SW-620 colon = test system: SW-620 colon
UO-31 renal = test system: UO-31 renal
A498 renal = test system: A498 renal
SNB-75 CNS = test system: SNB-75 CNS
HOP-62 NSCLC = test system: HOP-62 NSCLC
HOP-92 NSCLC = test system: HOP-92 NSCLC
MCF7 breast = test system: MCF7 breast
MOLT-4 leukemia = test system: MOLT-4 leukemia
786-0 renal = test system: 786-0 renal
SN12C renal = test system: SN12C renal
K-562 leukemia = test system: K-562 leukemia
DU-145 prostate = test system: DU-145 prostate
KM12 colon = test system: KM12 colon
MDA-MB-435 = test system: MDA-MB-435
A549 NSCLC = test system: A549 NSCLC
OVCAR-8 ovarian = test system: OVCAR-8 ovarian
UACC-62 melanoma = test system: UACC-62 melanoma
OVCAR-4 ovarian = test system: OVCAR-4 ovarian
SK-OV-3 ovarian = test system: SK-OV-3 ovarian
NCI-H226 lung = test system: NCI-H226 lung
MDA-MB-231 breast = test system: MDA-MB-231 breast
CCRF-CEM leukemia = test system: CCRF-CEM leukemia
OVCAR-5 ovarian = test system: OVCAR-5 ovarian
TK-10 renal = test system: TK-10 renal
LOX IMVI melanoma = test system: LOX IMVI melanoma
SNB-19 CNS = test system: SNB-19 CNS
MALME-3M melanoma = test system: MALME-3M melanoma
RPMI-8226 leukemia = test system: RPMI-8226 leukemia
NCI/ADR-RES ovarian = test system: NCI/ADR-RES ovarian
ACHN renal = test system: ACHN renal
RXF 393 renal = test system: RXF 393 renal
HS 578T breast = test system: HS 578T breast
SK-MEL-2 melanoma = test system: SK-MEL-2 melanoma
UACC-257 melanoma = test system: UACC-257 melanoma
HL-60(TB) leukemia = test system: HL-60(TB) leukemia
OVCAR-3 ovarian = test system: OVCAR-3 ovarian
M14 melanoma = test system: M14 melanoma
IGROV1 ovarian = test system: IGROV1 ovarian
T-47D breast = test system: T-47D breast
HCT-116 colon = test system: HCT-116 colon
HT29 colon = test system: HT29 colon
SR leukemia = test system: SR leukemia
SF-268 CNS = test system: SF-268 CNS
HCT-15 colon = test system: HCT-15 colon
SF-539 CNS = test system: SF-539 CNS
COLO 205 colon = test system: COLO 205 colon
EKVX NSCLC = test system: EKVX NSCLC
CAKI-1 renal = test system: CAKI-1 renal
NCI-H460 lung = test system: NCI-H460 lung
SK-MEL-28 melanoma = test system: SK-MEL-28 melanoma

In the case of `CCO/C=N/C1=C(C#N)C(c2ccc(OC)cc2)c2sc3c(CC)cccc3c2O1` (stereo unspecified), the GI50 (NCI-H522 lung) is reported as 1180 nM, the TGI (NCI-H522 lung) is reported as 6.01 µM and the GI50 (SF-295 CNS) is reported as 475 nM. For the same compound, the TGI (SF-295 CNS) was 1960 nM, the GI50 (U251 CNS) was 3.77 µM and the TGI (U251 CNS) was 16.3 µM. For the same compound, the GI50 (SK-MEL-5 melanoma) was 4.86 µM, the TGI (SK-MEL-5 melanoma) was 17 µM and the GI50 (BT-549 breast) was 4.56 µM. For the same compound, the TGI (BT-549 breast) was 19.4 µM, the GI50 (NCI-H23 lung) was 3.09 µM and the TGI (NCI-H23 lung) was 16.4 µM. For the same compound, the GI50 (HCC-2998 colon) was 2010 nM, the TGI (HCC-2998 colon) was 5.98 µM and the GI50 (PC-3 prostate) was 1500 nM. The TGI (PC-3 prostate) was 12.6 µM, the GI50 (SW-620 colon) was 1450 nM and the TGI (SW-620 colon) was 16.4 µM. It also gave a GI50 (UO-31 renal) of 3.29 µM, a TGI (UO-31 renal) of 16.1 µM and a GI50 (A498 renal) of 472 nM. It also gave a TGI (A498 renal) of 7.6 µM, a GI50 (SNB-75 CNS) of 366 nM and a TGI (SNB-75 CNS) of 4.02 µM. It also gave a GI50 (HOP-62 NSCLC) of 5.63 µM, a TGI (HOP-62 NSCLC) of 22.4 µM and a GI50 (HOP-92 NSCLC) of 1670 nM. For the same compound, the TGI (HOP-92 NSCLC) was 16.7 µM, the GI50 (MCF7 breast) was 1250 nM and the TGI (MCF7 breast) was 13 µM. The GI50 (MOLT-4 leukemia) was 3.28 µM, the TGI (MOLT-4 leukemia) was 26.2 µM and the GI50 (786-0 renal) was 3.06 µM. For the same compound, the TGI (786-0 renal) was 17.5 µM, the GI50 (SN12C renal) was 3.73 µM and the TGI (SN12C renal) was 18.1 µM. For the same compound, the GI50 (K-562 leukemia) was 678 nM, the TGI (K-562 leukemia) was 30.8 µM and the GI50 (DU-145 prostate) was 3.55 µM. For the same compound, the TGI (DU-145 prostate) was 14.9 µM, the GI50 (KM12 colon) was 2630 nM and the TGI (KM12 colon) was 21.7 µM. It also gave a GI50 (MDA-MB-435) of 373 nM, a TGI (MDA-MB-435) of 1510 nM and a GI50 (A549 NSCLC) of 2590 nM. The TGI (A549 NSCLC) was 34.1 µM, the GI50 (OVCAR-8 ovarian) was 3.24 µM and the TGI (OVCAR-8 ovarian) was 18 µM. The GI50 (UACC-62 melanoma) was 1040 nM, the TGI (UACC-62 melanoma) was 18.4 µM and the GI50 (OVCAR-4 ovarian) was 4.26 µM. For the same compound, the TGI (OVCAR-4 ovarian) was 16.3 µM, the GI50 (SK-OV-3 ovarian) was 5.3 µM and the TGI (SK-OV-3 ovarian) was 20.9 µM. For the same compound, the GI50 (NCI-H226 lung) was 6.65 µM, the TGI (NCI-H226 lung) was 25.4 µM and the GI50 (MDA-MB-231 breast) was 4.05 µM. For the same compound, the TGI (MDA-MB-231 breast) was 24.1 µM, the GI50 (CCRF-CEM leukemia) was 1230 nM and the TGI (CCRF-CEM leukemia) was 20.8 µM. It also gave a GI50 (OVCAR-5 ovarian) of 5.19 µM, a TGI (OVCAR-5 ovarian) of 18.4 µM and a GI50 (TK-10 renal) of 9.77 µM. The TGI (TK-10 renal) was 24.2 µM, the GI50 (LOX IMVI melanoma) was 2310 nM and the TGI (LOX IMVI melanoma) was 14.5 µM. The GI50 (SNB-19 CNS) was 3.35 µM, the TGI (SNB-19 CNS) was 15.5 µM and the GI50 (MALME-3M melanoma) was 10.9 µM. For the same compound, the TGI (MALME-3M melanoma) was 25 µM, the GI50 (RPMI-8226 leukemia) was 2740 nM and the TGI (RPMI-8226 leukemia) was 11.8 µM. The GI50 (NCI/ADR-RES ovarian) was 566 nM, the TGI (NCI/ADR-RES ovarian) was 13.9 µM and the GI50 (ACHN renal) was 3.36 µM. It also gave a TGI (ACHN renal) of 17.2 µM, a GI50 (RXF 393 renal) of 1720 nM and a TGI (RXF 393 renal) of 4.83 µM. It also gave a GI50 (HS 578T breast) of 2300 nM, a TGI (HS 578T breast) of 9.55 µM and a GI50 (SK-MEL-2 melanoma) of 5.76 µM. The TGI (SK-MEL-2 melanoma) was 22.7 µM, the GI50 (UACC-257 melanoma) was 13.1 µM and the TGI (UACC-257 melanoma) was 38.2 µM. It also gave a GI50 (HL-60(TB) leukemia) of 1920 nM, a TGI (HL-60(TB) leukemia) of 14.5 µM and a GI50 (OVCAR-3 ovarian) of 3.59 µM. For the same compound, the TGI (OVCAR-3 ovarian) was 18.1 µM, the GI50 (M14 melanoma) was 1500 nM and the TGI (M14 melanoma) was 11.8 µM. It also gave a GI50 (IGROV1 ovarian) of 1530 nM, a TGI (IGROV1 ovarian) of 17.5 µM and a GI50 (T-47D breast) of 3.13 µM. It also gave a TGI (T-47D breast) of 15.8 µM, a GI50 (HCT-116 colon) of 1030 nM and a TGI (HCT-116 colon) of 11.7 µM. For the same compound, the GI50 (HT29 colon) was 3.22 µM, the TGI (HT29 colon) was 11.6 µM and the GI50 (SR leukemia) was 821 nM. For the same compound, the TGI (SR leukemia) was 25 µM, the GI50 (SF-268 CNS) was 7.49 µM and the TGI (SF-268 CNS) was 29.2 µM. It also gave a GI50 (HCT-15 colon) of 920 nM, a TGI (HCT-15 colon) of 10.4 µM and a GI50 (SF-539 CNS) of 1750 nM. The TGI (SF-539 CNS) was 4.5 µM, the GI50 (COLO 205 colon) was 3.52 µM and the TGI (COLO 205 colon) was 12.9 µM. It also gave a GI50 (EKVX NSCLC) of 3.47 µM, a TGI (EKVX NSCLC) of 17.3 µM and a GI50 (CAKI-1 renal) of 1900 nM. The TGI (CAKI-1 renal) was 19.3 µM, the GI50 (NCI-H460 lung) was 3.46 µM and the TGI (NCI-H460 lung) was 12.8 µM. The GI50 (SK-MEL-28 melanoma) was 7.74 µM and the TGI (SK-MEL-28 melanoma) was 25 µM.
